In PubChem BioAssay (NCI):
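Growth conditions: 96-well plates. Treatment: test compound, 48 hours, 5 concentrations. Analysis: linear interpolation between bracketing concentrations; unreached endpoints set to highest concentration. TGI marks complete inhibition of growth.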

What was measured:
Assay in all cases: NCI tumour cell line growth inhibition, 48 h
[1] = system: NCI/ADR-RES ovarian
[2] = system: OVCAR-4 ovarian
[3] = system: MOLT-4 leukemia
[4] = system: SNB-19 CNS
[5] = system: EKVX NSCLC
[6] = system: LOX IMVI melanoma
[7] = system: NCI-H226 lung
[8] = system: HT29 colon
[9] = system: SN12K1 renal
[10] = system: HCT-116 colon
[11] = system: P388/ADR leukemia
[12] = system: XF 498 CNS
[13] = system: UO-31 renal
[14] = system: KM20L2 colon
[15] = system: NCI-H522 lung
[16] = system: OVCAR-3 ovarian
[17] = system: A549 NSCLC
[18] = system: SK-MEL-28 melanoma
[19] = system: NCI-H460 lung
[20] = system: SNB-78 CNS
[21] = system: OVCAR-8 ovarian
[22] = system: IGROV1 ovarian
[23] = system: HL-60(TB) leukemia
[24] = system: SF-268 CNS
[25] = system: U251 CNS
[26] = system: HCT-15 colon
[27] = system: HOP-18 NSCLC
[28] = system: SF-295 CNS
[29] = system: DLD-1 colon
[30] = system: A498 renal
[31] = system: SW-620 colon
[32] = system: HOP-62 NSCLC
[33] = system: M19-MEL melanoma
[34] = system: SF-539 CNS
[35] = system: DMS 273 small cell lung
[36] = system: SK-OV-3 ovarian
[37] = system: SN12C renal
[38] = system: KM12 colon
[39] = system: SNB-75 CNS
[40] = system: RXF 393 renal
[41] = system: UACC-62 melanoma
[42] = system: NCI-H23 lung
[43] = system: P388 leukemia
[44] = system: CCRF-CEM leukemia
[45] = system: CAKI-1 renal
[46] = system: K-562 leukemia
[47] = system: MALME-3M melanoma
[48] = system: UACC-257 melanoma
[49] = system: SK-MEL-2 melanoma
[50] = system: SK-MEL-5 melanoma
[51] = system: RPMI-8226 leukemia
[52] = system: DMS 114 small cell lung
[53] = system: MCF7 breast
[54] = system: COLO 205 colon
[55] = system: HOP-92 NSCLC
[56] = system: OVCAR-5 ovarian
[57] = system: HCC-2998 colon

In the case of `CCN(CC)c1c(C)c(C(=O)OC)nn1-c1ccccc1`, the TGI [1] is reported as > 100 µM, the TGI [2] is reported as > 100 µM and the TGI [3] is reported as > 100 µM. The TGI [4] was > 100 µM, the TGI [5] was > 100 µM and the TGI [6] was > 100 µM. The TGI [7] was > 100 µM, the TGI [8] was > 100 µM and the TGI [9] was > 100 µM. For the same compound, the TGI [10] was > 100 µM, the TGI [11] was > 100 µM and the TGI [12] was > 100 µM. The TGI [13] was > 100 µM, the TGI [14] was > 100 µM and the TGI [15] was > 100 µM. For the same compound, the TGI [16] was > 100 µM, the TGI [17] was > 100 µM and the TGI [18] was > 100 µM. The TGI [19] was > 100 µM, the TGI [20] was > 100 µM and the TGI [21] was > 100 µM. The TGI [22] was > 100 µM, the TGI [23] was > 100 µM and the TGI [24] was > 100 µM. For the same compound, the TGI [25] was > 100 µM, the TGI [26] was > 100 µM and the TGI [27] was > 100 µM. For the same compound, the TGI [28] was > 100 µM, the TGI [29] was > 100 µM and the TGI [30] was > 100 µM. For the same compound, the TGI [31] was > 100 µM, the TGI [32] was > 100 µM and the TGI [33] was > 100 µM. The TGI [34] was > 100 µM, the TGI [35] was > 100 µM and the TGI [36] was > 100 µM. The TGI [37] was > 100 µM, the TGI [38] was > 100 µM and the TGI [39] was > 100 µM. For the same compound, the TGI [40] was > 100 µM, the TGI [41] was > 100 µM and the TGI [42] was > 100 µM. For the same compound, the TGI [43] was > 100 µM, the TGI [44] was > 100 µM and the TGI [45] was > 86.3 µM. For the same compound, the TGI [46] was > 100 µM, the TGI [47] was > 100 µM and the TGI [48] was > 100 µM. The TGI [49] was > 100 µM, the TGI [50] was > 100 µM and the TGI [51] was > 100 µM. The TGI [52] was > 100 µM, the TGI [53] was > 100 µM and the TGI [54] was > 100 µM. The TGI [55] was > 100 µM, the TGI [56] was > 100 µM and the TGI [57] was > 100 µM.
Work on `Cc1ccc2cc3cccc(C(=O)NCCN(C)C)c3nc2c1` yielded a TGI [1] of 5.07 µM, a TGI [2] of 6.11 µM and a TGI [4] of 8.1 µM. For the same compound, the TGI [5] was 3.44 µM, the TGI [6] was 6.08 µM and the TGI [7] was 4.16 µM. For the same compound, the TGI [8] was 2.67 µM, the TGI [9] was 5.59 µM and the TGI [10] was 6.23 µM. It also gave a TGI [11] of 1.46 µM, a TGI [12] of 3.68 µM and a TGI [13] of 3.19 µM. The TGI [14] was 3.08 µM, the TGI [16] was 5.67 µM and the TGI [17] was 5.05 µM. It also gave a TGI [18] of 3.39 µM, a TGI [19] of 1.94 µM and a TGI [20] of 7.78 µM. It also gave a TGI [21] of 6.45 µM, a TGI [22] of 9.09 µM and a TGI [23] of 2.49 µM. The TGI [24] was 4.03 µM, the TGI [25] was 9.2 µM and the TGI [26] was 9.17 µM. For the same compound, the TGI [27] was 7.36 µM, the TGI [28] was 3.91 µM and the TGI [29] was 8.36 µM. The TGI [30] was 2.37 µM, the TGI [31] was 6.46 µM and the TGI [32] was 6.17 µM. For the same compound, the TGI [33] was 3.01 µM, the TGI [34] was 3.57 µM and the TGI [35] was 2.8 µM. The TGI [36] was 7.87 µM, the TGI [37] was 6.39 µM and the TGI [38] was 10 µM. For the same compound, the TGI [39] was 4.75 µM, the TGI [40] was 2.73 µM and the TGI [41] was 3.16 µM. The TGI [42] was 3.4 µM, the TGI [43] was 1.26 µM and the TGI [44] was 5.54 µM. For the same compound, the TGI [45] was 10.8 µM, the TGI [46] was > 31.3 µM and the TGI [47] was 2.49 µM. It also gave a TGI [48] of 2.74 µM, a TGI [49] of 3.55 µM and a TGI [50] of 2.66 µM. It also gave a TGI [51] of 7.42 µM, a TGI [52] of 2.58 µM and a TGI [53] of 5.19 µM. The TGI [54] was 2.51 µM, the TGI [55] was 2.75 µM and the TGI [56] was 4.28 µM. For the same compound, the TGI [57] was 3.04 µM.
